Measurements reported in patent US20240074473A1, “METHOD FOR INDUCING HYPERTROPHIC MUSCLE FIBERS FOR INDUSTRIAL MEAT PRODUCTION” (Yeda Research and Development Co. Ltd., priority 2021, published 2024).

Columns and labels:
CaMKII = experiment: Western blot of CaMKII activation (p-CaMKII T287) in myoblasts; format: cell-based, mouse
Description: Western Blot analysis. Cultured cells and whole tissues extracts were prepared with RIPA buffer supplemented with protease inhibitor cocktail (SIGMA P8340), and phosphatase inhibitor cocktails (SIGMA P5726 and P0044). Western blotting was performed using the Mini-PROTEAN Tetra Cell electrophoresis system, and transferred to PVDF membranes. The following primary antibodies concentrations were used p-CAMKII 1:1000 (Abcam ab182647), CaMKII 1:1000 (Cell Signaling 3362), GAPDH 1:10,000 (Abcam ab181602), p-ERK1/2 1:20,000 (SIGMA M9692), ERK1/2 1:40,000 (SIGMA), Myosin Heavy Chain (MF-20 DSHB hybridoma supernatant 1:100) Horseradish peroxidase conjugated secondary anti-mouse, anti-rabbit or anti-goat was used to detect proteins (Jackson Immunology). Western blots were imaged using the Chemidoc Multiplex system (Bio-rad).

bovine myoblasts = experiment: Immunofluorescence intensity of sarcomeric proteins in bovine myotubes; format: cell-based; details: 96 hours post-treatment
Description: Shown is immunofluorescence staining of the sarcomeric components of myosin heavy chain (MyHC), alpha-actinin, and Tropoinin T at 96 hours post treatment either with proliferation media (PM), differentiation media (DM), or with 1 uM SCH 772984 (ERKi).

O=C(Nc1ccc2[nH]nc(-c3ccncc3)c2c1)[C@@H]1CCN(CC(=O)N2CCN(c3ccc(-c4ncccn4)cc3)CC2)C1 [SCH772984]
Time of CaMKII activation post ERKi treatment (CaMKII; 1 μM ERKi time-course): ≤ 16 h | CaMKII activation (p-CaMKII T287) (CaMKII; treatment of myoblasts with ERKi, 24 hours): activated | Maturation markers (sarcomeric proteins MyHC, actinin, troponin signal intensity) compared to DM (bovine myoblasts): increased
